Results from patent US20230321286A1, “PROTOCOL FOR MINIMIZING TOXICITY OF COMBINATION DOSAGES AND IMAGING AGENT FOR VERIFICATION” (priority 2018, published 2023).

What was measured:
[1] = Plasma concentration of PLX038, released SN-38 and SN-38G in rats bearing HT29 tumor xenografts (HPLC with fluorescence monitoring); type: in vivo; details: rat with HT29 xenograft, ~200 mg/kg PLX038, conjugate
HT29 tumor xenografts = assay: Levels of conjugate and released SN-38 in tumor versus plasma, HT29 xenograft-bearing rats
HT-29 xenograft = details: irinotecan control
Protocol: Varying doses of the unlabeled PEG~(SN-38)4 conjugate are injected into animals.

MX-1 tumor xenografts = assay: Efficacy of PLX038A (PEG-SN38) in mice bearing MX-1 tumor xenografts; details: 137 µmole/kg irinotecan single dose
[2] = 14 days post-dosing, single 200 mg/kg PLX038
[3] = administered dose 200 mg/kg PLX038

| SMILES | half-life in plasma / systemic circulation [1] [h] | accumulation in tumors (HT29 tumor xenografts; [2]) | serum levels (HT29 tumor xenografts; [2]) | concentration of released SN-38 in the tumor (HT29 tumor xenografts; [3]) | released SN-38 in the circulation (HT29 tumor xenografts; [3]) | conjugate / free drug in the plasma (HT29 tumor xenografts; lower dosages of PLX038) | conjugate / free drug in the tumor (HT29 tumor xenografts; lower dosages of PLX038) | tumor inhibition relative to PLX038 (HT-29 xenograft) | gastrointestinal (GI) toxicity (HT-29 xenograft; rat HT-29 xenograft model, PLX038 single 200 mg/kg) | effect on tumor growth compared with vehicle (MX-1 tumor xenografts) |
| --- | --- | --- | --- | --- | --- | --- | --- | --- | --- | --- |
| CCc1c2c(nc3ccc(O)cc13)-c1cc3c(c(=O)n1C2)COC(=O)[C@]3(O)CC [SN-38] | 50 | high accumulation | undetectable | about 80 pm/g | barely detectable | not detected in the plasma | significant concentrations | – | – | – |
| CCc1c2c(nc3ccc(OC(=O)N4CCC(N5CCCCC5)CC4)cc13)-c1cc3c(c(=O)n1C2)COC(=O)[C@]3(O)CC [irinotecan] | – | – | – | – | – | – | – | near-equal tumor inhibition | significant GI toxicity | only somewhat better than vehicle |
